Active and inactive are the calls of the source.
Legend:
[1] = NIH-3T3 fibroblast cytotoxicity, dose response, cytotoxicity control, cell-based, fluorescence, Alamar Blue, secondary assay (AID 2327); assay type: functional;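 further: NIH-3T3 mouse fibroblasts cultured with fluconazole at 8 µg/mL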
[2] = fluconazole-exposed Candida albicans growth modulators – fluorescence, retest, confirmation (AID 2467); assay type: functional, cell-based
Interleukin-8 = target: T1, Interleukin-8 (Homo sapiens, UniProt P10145); assay: Dose Response confirmation of uHTS small molecule hits for cystic fibrosis induced NFkb Inhibitors in a PAF-induced IL8 counterscreen.; assay type: functional; conditions: read-out: IC50_Mean
T1 sequence (P10145 whole entry): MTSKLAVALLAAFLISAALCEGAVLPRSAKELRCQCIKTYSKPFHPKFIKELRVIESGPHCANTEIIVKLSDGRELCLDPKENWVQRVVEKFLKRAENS

Kallikrein-7 = Kallikrein-7 (Homo sapiens, UniProt P49862); assay: Fluorescence Intensity-based biochemical primary high throughput dose response assay to identify activators of kallikrein-7 (K7) zymogen.
Aminopeptidase N = target: T2, Aminopeptidase N (Plasmodium falciparum FcB1/Columbia, UniProt O96935); assay: malaria alanyl aminopeptidase activity blockers – biochemical, fluorogenic H-Leu-NHMec substrate, 1536-well (AID 1445); set-up: species or system Plasmodium falciparum 3D7, 3D7
T2 sequence (O96935 whole entry): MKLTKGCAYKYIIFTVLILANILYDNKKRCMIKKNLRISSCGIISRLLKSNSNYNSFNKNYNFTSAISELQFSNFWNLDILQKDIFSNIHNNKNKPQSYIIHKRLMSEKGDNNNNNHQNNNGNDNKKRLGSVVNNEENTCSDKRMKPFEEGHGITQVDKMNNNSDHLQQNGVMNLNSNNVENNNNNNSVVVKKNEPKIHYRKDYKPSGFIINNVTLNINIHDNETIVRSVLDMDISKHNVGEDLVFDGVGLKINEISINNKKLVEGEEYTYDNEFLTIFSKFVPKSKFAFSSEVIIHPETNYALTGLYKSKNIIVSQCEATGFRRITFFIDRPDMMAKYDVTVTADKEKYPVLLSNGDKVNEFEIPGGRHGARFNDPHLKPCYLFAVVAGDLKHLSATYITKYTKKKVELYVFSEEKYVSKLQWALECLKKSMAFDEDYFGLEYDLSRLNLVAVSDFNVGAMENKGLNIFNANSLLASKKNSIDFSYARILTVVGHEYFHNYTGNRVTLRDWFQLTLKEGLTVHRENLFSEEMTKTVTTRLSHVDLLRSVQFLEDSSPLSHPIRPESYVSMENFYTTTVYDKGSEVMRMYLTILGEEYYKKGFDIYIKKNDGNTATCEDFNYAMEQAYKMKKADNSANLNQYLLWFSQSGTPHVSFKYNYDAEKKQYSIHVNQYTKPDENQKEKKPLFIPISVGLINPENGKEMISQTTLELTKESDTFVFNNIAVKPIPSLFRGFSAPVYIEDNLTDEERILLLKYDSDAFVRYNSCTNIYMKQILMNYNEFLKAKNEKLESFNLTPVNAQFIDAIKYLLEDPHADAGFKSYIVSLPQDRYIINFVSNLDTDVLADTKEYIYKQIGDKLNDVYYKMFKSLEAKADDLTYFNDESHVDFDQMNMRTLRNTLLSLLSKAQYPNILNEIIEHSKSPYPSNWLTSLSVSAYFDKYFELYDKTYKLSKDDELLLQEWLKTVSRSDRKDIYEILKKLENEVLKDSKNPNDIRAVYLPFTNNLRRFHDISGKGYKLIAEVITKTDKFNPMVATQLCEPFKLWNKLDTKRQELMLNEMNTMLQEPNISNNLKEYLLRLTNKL

[3] = target: Serine/threonine-protein phosphatase PP1-alpha catalytic subunit (Homo sapiens, UniProt P62136); assay: inhibition of protein phosphatase 1 activity – biochemical, fluorescence, dose response (AID 2403);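 further: phosphatase turnover of OMFP into fluorescent 3-O-methylfluorescein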
[4] = target: T3, Serine/threonine-protein phosphatase (Homo sapiens, UniProt Q9BPW0); assay: Counterscreen for inhibitors of PP1: fluorescence-based biochemical high throughput dose response assay to identify inhibitors of Protein Phosphatase 5 (PP5). [Related pubchem assays: 2034 (Summary (PP5 inhibitors)), 1987 (PP5 inhibitors in singlate), 2235 (PP1 inhibitors in singlate)]
T3 sequence (Q9BPW0 whole entry): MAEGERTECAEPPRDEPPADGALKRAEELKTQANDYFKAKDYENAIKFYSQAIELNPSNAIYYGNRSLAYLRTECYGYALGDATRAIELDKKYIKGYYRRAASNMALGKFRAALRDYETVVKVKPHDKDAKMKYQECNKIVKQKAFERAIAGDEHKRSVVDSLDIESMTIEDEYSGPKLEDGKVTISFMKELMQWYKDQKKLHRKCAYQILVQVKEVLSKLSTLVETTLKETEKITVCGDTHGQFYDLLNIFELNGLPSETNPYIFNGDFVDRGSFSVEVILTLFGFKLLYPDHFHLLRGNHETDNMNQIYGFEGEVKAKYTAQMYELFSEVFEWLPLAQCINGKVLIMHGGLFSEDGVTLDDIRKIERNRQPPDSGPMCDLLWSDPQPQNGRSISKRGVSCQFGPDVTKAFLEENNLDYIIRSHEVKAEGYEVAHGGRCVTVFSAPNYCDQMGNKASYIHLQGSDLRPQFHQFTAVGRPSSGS

[5] = target: Endoplasmic reticulum aminopeptidase 1 (Homo sapiens, UniProt Q9NZ08); assay: inhibition of human ERAP1 enzyme activity – biochemical, cherry-pick, set 2, plate reader, dose response (AID 743314)
[6] = target: C-X-C chemokine receptor type 4 (Homo sapiens, UniProt P61073); assay: SAR analysis of small molecule antagonists of the CXCR6 receptor using a CXCR4 receptor luminescent beta-arrestin counterscreen.; assay type: functional
[7] = target: C-C chemokine receptor type 6 (Homo sapiens, UniProt P51684); assay: SAR analysis of small molecule antagonists of the CXCR6 receptor using a CCR6 receptor luminescent beta-arrestin counterscreen.; assay type: functional
fMet-Leu-Phe receptor = fMet-Leu-Phe receptor (Homo sapiens, UniProt P21462); assay: formyl peptide receptor binders – dose response (AID 519); assay type: functional
Large T antigen = Large T antigen (Simian virus 40, UniProt P03070); assay type: functional, Betapolyomavirus macacae;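 further: Confirmatory-stage PubChem screen for compounds that inhibit SV40 T antigen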
Caspase-6 = Caspase-6 (Homo sapiens, UniProt P55212); assay: inhibition of CASP6 peptide cleavage – biochemical, VEID-R110 fluorescence, cherry-pick, dose response (AID 720632)
INS1 = assay: INS-1E survival protection against cytokine death – cell-based, luminescence, retest, dose response (AID 449756); assay type: functional; conditions: Rattus norvegicus;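 further: cell death triggered by IL-1 beta plus TNF-alpha plus IFN-gamma mixture; protective hits raise ATP signal compared with cytokine alone wells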
[8] = IC50 of Artemis nuclease activity blockers – biochemical, fluorescence intensity, dose response (AID 720701); assay type: functional;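 further: Artemis endonuclease enzyme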
[9] = inhibitors of TRPM1-promoter reporter in SK-MEL-5 – cell-based, luciferase, dry powder, set 9, MITF inhibitor project, dose response (AID 651588); assay type: functional
[10] = cytotoxicity in MITF-independent A375 cells – cell-based, CellTiter-Glo luminescence, dry powder, set 4, counter-screen for MITF inhibitor project, dose response (AID 624364); assay type: functional; conditions: A-375;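 further: A375 melanoma cells are MITF independent so this is a counter screen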
[11] = viability loss in MITF-independent A375 cells – cell-based, CellTiter-Glo luminescence, dry powder, set 7, counter-screen for MITF inhibitor project, dose response (AID 624490); assay type: functional; conditions: A-375
[12] = MITF Orthogonal Assay: MALME3 CTG Assay Measured in Cell-Based System Using Plate Reader - 2084-04_Inhibitor_Dose_DryPowder_Activity_Set6.; assay type: functional; conditions: MALME-3
[13] = growth inhibition of SK-MEL-5 melanoma cells – cell-based, CellTiter-Glo luminescence, dry powder, set 8, orthogonal assay for MITF inhibitor project, dose response (AID 651586); assay type: functional
[14] = growth inhibition of MALME3 cells – cell-based, CellTiter-Glo luminescence, dry powder, set 5, orthogonal assay for MITF inhibitor project, dose response (AID 651584); assay type: functional; conditions: MALME-3
[15] = cytotoxicity in melanoma parental cells – cell-based, CellTiter-Glo, dry powder, set 6, MITF inhibitor project, dose response (AID 624429); assay type: functional; conditions: SK-MEL-5
[16] = MITF Orthogonal Assay: SK-MEL-5 CTG Assay Measured in Cell-Based System Using Plate Reader - 2084-02_Inhibitor_Dose_DryPowder_Activity_Set5.; assay type: functional
[17] = MITF Measured in Cell-Based System Using Plate Reader - 2084-01_Inhibitor_Dose_DryPowder_Activity_Set6.; assay type: functional
[18] = MITF Measured in Cell-Based System Using Plate Reader - 2084-01_Inhibitor_Dose_DryPowder_Activity_Set7.; assay type: functional
[19] = melanocyte viability loss, MITF-dependent cells, cell-based, plate reader, dry powder, cytotoxicity control, dose response (AID 651920); assay type: functional
Paired box protein Pax-8 = Paired box protein Pax-8 (Homo sapiens, UniProt Q06710); assay: PAX8 transcriptional activity inhibition in RMG-I – RMG-I cells, luciferase, cherry-pick, dose response (AID 687027); assay type: functional, cell-based;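 further: luciferase reporter driven by Pax8 target thyroperoxidase promoter measured by SteadyGlo luminescence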
[20] = toxicity toward immortalized ovarian surface epithelium – cell-based, plate reader, dry powder samples, cytotoxicity control for PAX8 inhibitor project, dose response (AID 743045); assay type: functional
[21] = OVCAR-3 cell viability loss – plate reader, dry powder samples, PAX8 inhibitor project, dose response (AID 743044); assay type: functional, cell-based
[22] = IGROV1 cell killing – plate reader, dry powder samples, PAX8 inhibitor project, dose response (AID 743043); assay type: functional, cell-based; conditions: IGROV-1
[23] = OVCAR8 cell viability loss – plate reader, dry powder samples, PAX8 project, dose response (AID 743197); assay type: functional, cell-based; conditions: OVCAR-8
[24] = ATP-based viability loss in HEK293T cells – cell-based, CellTiter-Glo luminescence, dry powder, set 2, cytotoxicity control, dose response (AID 720595); assay type: functional; conditions: HEK293
[25] = ATP-based viability loss in HeLa cells – cell-based, CellTiter-Glo luminescence, dry powder, set 2, cytotoxicity control, dose response (AID 720593); assay type: functional
[26] = dual-tagged ARNT PAS-B bead signal quenchers – biochemical, dry powder, artefact control for ARNT/TACC3 disruptor project, dose response (AID 720564)
[27] = HepG2 hepatoma cell viability loss – plate reader, dry powder, cytotoxicity control, dose response (AID 651947); assay type: functional, cell-based
[28] = viability loss in HEK293 kidney cells – cell-based, cherry-picks, set 5, cytotoxicity control, dose response (AID 1053117); assay type: functional
[29] = viability loss in A549 lung cancer cells – cell-based, cherry-picks, […], cytotoxicity control, dose response (AID 1053119); assay type: functional
[30] = blockers of FN fibrillogenesis by fibroblasts – AH1F cells, Alexa488-FN fluorescence, cherry-picks, dose response (AID 1035475); assay type: functional, cell-based
[31] = viability loss in A549 lung cells – cell-based, 24 h, CellTiter-Glo luminescence, cherry-picks, cytotoxicity control, dose response (AID 1053115); assay type: functional; conditions: A549, 24 h

C-C chemokine receptor type 6, sequence (P51684 whole entry): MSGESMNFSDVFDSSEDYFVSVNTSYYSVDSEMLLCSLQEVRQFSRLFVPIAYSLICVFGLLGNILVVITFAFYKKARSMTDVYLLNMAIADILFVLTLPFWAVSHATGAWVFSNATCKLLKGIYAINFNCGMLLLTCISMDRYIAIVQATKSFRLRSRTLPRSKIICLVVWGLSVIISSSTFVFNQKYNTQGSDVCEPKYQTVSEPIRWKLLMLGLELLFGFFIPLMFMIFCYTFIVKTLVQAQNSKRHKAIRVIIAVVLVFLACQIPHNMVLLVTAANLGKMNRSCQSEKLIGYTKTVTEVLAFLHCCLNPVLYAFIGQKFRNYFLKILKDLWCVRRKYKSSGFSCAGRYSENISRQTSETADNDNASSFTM
Caspase-6, sequence (P55212 24-179 limits assumed): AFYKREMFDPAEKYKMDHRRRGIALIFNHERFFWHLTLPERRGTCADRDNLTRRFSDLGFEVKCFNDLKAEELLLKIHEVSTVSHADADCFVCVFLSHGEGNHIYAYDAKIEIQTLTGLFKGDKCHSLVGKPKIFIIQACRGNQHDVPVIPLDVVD
Caspase-6, sequence (P55212 194-293 limits assumed): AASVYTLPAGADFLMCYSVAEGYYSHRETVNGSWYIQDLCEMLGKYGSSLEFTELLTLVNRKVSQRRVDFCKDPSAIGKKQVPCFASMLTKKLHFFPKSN
Kallikrein-7, sequence (P49862 whole entry): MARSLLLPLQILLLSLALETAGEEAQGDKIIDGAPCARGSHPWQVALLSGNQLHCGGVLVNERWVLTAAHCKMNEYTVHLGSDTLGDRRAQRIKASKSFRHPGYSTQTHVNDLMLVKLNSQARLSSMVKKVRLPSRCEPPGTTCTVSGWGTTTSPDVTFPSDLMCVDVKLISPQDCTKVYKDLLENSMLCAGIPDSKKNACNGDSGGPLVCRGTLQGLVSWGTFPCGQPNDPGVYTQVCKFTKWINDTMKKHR
Serine/threonine-protein phosphatase PP1-alpha catalytic subunit, sequence (P62136 whole entry): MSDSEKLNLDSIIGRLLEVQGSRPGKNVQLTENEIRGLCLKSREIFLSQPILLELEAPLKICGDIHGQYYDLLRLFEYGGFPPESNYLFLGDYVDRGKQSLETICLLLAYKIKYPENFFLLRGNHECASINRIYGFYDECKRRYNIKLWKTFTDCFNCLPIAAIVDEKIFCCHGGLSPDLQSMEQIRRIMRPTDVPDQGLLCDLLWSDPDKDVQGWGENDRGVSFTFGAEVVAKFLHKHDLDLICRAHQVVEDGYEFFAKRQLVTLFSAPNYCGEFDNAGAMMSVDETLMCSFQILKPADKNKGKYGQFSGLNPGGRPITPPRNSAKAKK
C-X-C chemokine receptor type 4, sequence (P61073 whole entry): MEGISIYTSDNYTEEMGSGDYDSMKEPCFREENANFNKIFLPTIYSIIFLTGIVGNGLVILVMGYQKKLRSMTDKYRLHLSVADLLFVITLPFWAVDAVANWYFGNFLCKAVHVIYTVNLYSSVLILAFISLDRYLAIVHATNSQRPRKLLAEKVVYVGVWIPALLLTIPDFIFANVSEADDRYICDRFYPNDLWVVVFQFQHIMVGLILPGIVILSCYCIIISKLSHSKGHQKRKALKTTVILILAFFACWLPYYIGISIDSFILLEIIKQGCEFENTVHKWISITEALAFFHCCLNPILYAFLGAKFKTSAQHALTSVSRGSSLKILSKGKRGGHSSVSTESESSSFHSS
Endoplasmic reticulum aminopeptidase 1, sequence (Q9NZ08 whole entry): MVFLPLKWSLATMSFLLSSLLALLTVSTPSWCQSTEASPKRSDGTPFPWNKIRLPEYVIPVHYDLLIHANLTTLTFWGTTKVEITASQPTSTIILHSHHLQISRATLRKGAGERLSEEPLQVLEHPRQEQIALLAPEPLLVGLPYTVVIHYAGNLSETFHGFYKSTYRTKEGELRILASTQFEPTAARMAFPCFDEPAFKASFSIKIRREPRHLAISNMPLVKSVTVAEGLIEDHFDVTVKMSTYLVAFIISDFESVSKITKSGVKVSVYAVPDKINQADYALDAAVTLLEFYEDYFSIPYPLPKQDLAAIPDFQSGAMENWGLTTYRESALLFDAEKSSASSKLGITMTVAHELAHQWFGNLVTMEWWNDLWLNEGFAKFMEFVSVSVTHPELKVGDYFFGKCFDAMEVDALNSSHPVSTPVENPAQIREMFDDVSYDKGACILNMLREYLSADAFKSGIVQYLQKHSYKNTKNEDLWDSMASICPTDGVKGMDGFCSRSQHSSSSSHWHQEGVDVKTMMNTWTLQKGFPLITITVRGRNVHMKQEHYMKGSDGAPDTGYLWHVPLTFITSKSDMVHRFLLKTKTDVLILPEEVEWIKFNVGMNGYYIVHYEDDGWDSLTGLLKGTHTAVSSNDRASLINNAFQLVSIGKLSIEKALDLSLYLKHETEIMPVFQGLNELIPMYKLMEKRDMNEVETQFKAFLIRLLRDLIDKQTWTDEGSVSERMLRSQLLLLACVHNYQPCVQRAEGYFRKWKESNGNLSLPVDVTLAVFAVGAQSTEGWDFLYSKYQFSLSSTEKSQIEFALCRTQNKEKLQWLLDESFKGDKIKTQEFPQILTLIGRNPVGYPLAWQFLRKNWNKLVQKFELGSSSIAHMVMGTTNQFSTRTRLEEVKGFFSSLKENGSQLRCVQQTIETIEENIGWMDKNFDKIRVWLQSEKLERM
Large T antigen, sequence (P03070 whole entry): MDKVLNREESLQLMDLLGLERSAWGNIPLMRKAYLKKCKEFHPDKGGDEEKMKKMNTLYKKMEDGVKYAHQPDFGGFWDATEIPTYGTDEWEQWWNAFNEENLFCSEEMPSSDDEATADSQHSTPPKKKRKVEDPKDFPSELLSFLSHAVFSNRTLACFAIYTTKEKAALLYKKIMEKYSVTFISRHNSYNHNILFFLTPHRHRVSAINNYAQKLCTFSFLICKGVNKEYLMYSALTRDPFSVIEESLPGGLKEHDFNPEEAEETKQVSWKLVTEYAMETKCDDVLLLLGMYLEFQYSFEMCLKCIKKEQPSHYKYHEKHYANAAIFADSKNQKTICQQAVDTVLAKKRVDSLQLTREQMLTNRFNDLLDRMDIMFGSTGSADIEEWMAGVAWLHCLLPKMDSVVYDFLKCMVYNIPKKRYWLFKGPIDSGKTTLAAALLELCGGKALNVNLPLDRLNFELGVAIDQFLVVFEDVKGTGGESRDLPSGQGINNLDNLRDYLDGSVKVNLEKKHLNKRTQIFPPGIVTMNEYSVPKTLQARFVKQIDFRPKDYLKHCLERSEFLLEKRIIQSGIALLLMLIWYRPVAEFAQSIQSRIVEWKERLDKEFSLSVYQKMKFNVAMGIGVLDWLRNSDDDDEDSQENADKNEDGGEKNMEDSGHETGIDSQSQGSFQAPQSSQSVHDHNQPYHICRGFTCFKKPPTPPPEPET
Paired box protein Pax-8, sequence (Q06710 whole entry): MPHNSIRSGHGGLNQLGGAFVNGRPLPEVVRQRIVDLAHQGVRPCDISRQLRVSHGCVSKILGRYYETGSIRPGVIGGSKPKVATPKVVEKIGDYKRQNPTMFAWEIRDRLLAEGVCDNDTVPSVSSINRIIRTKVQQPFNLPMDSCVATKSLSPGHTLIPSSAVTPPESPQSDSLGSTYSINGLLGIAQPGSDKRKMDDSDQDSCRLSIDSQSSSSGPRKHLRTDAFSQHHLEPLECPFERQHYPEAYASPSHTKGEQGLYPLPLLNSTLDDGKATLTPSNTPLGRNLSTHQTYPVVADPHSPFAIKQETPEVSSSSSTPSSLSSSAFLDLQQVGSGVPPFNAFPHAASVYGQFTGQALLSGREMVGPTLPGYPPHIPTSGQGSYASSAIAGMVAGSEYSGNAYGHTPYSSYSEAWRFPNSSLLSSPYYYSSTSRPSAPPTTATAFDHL
fMet-Leu-Phe receptor, sequence (P21462 whole entry): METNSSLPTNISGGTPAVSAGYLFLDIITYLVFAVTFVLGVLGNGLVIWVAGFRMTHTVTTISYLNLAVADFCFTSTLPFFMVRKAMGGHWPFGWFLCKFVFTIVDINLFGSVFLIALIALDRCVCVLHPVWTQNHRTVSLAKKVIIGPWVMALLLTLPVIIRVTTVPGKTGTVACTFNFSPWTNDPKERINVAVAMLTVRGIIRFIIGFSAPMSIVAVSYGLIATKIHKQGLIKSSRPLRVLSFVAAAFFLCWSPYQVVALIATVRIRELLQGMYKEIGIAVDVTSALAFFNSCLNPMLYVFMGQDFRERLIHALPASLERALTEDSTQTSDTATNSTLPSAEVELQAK

SMILES: COc1ccc(-c2cc(=O)oc3cc(OC(=O)C4CCCCC4)c(Cl)cc23)cc1
- EC50 [1]: 34.6 µM (active)
- EC50 [2]: 1.9 µM (active)
- IC50 (Interleukin-8): 4.55 µM (active)
- EC50 (Kallikrein-7): > 69.5 µM (inactive)

SMILES: CCCCCCC[C@H](N)[C@H](O)C(=O)N(C)[C@@H](CC[S+](C)[O-])C(=O)N[C@@H](Cc1ccc(O)cc1)C(=O)N[C@@H](Cc1ccc(O)cc1)C(=O)O (some centres undefined)
- IC50 (Aminopeptidase N): 16.8 µM (active)
- IC50 [3]: 0.227 µM (active)
- IC50 [4]: 0.578 µM (active)
- AC50 [5]: 8.53 µM (active)

SMILES: COc1cc(C(=O)NC2CC3CCCC(C2)N3CC(=O)Nc2ccccc2)cc(OC)c1OC (centres undefined)
- IC50 [6]: > 79 µM (inactive)
- IC50 [7]: > 79 µM (inactive)

SMILES: Cc1cc(SCC(N)=O)nc(SCC(=O)c2ccccc2)n1
- Ki (fMet-Leu-Phe receptor): > 66.7 µM (inactive)

SMILES: COc1ccc(Br)cc1C1CC(=O)N2CN(C)CSC2=C1C#N (centres undefined)
- IC50 (Large T antigen): 76.9 µM (active)
- AC50 (Caspase-6): 39.2 µM (active)

SMILES: c1ccc(-c2nnc3sc(-c4csc5c4CCCC5)nn23)cc1
- AC50 (INS1): 64.1 µM (active)
- IC50 [8]: > 20 µM (inactive)

SMILES: O=C1C=C(NS(=O)(=O)c2ccccc2)C(=O)c2ccccc21
- AC50 [9]: 13 µM (active)
- AC50 [10]: > 70 µM (inactive)
- AC50 [11]: > 70 µM (inactive)
- AC50 [12]: 21.3 µM (active)
- AC50 [13]: 18.4 µM (active)
- AC50 [14]: 21.3 µM (active)
- AC50 [15]: 10.5 µM (active)
- AC50 [16]: 10.3 µM (active)
- AC50 [17]: 3.04 µM (active)
- AC50 [18]: 4.57 µM (active)
- AC50 [19]: 59.4 µM (active)

SMILES: O=C(NC1CCCCC1)N1C[C@@H]2N[C@H](C1)[C@@H]2c1ccc(-c2ccc(F)cc2)cc1
- AC50 (Paired box protein Pax-8): 17.2 µM (active)
- AC50 [20]: 45.7 µM (active)
- AC50 [21]: 22 µM (active)
- AC50 [22]: 63.7 µM (active)
- AC50 [23]: > 70 µM (inactive)

SMILES: O=C(Nc1nnc(-c2ccc(F)cc2)o1)c1ccc(S(=O)(=O)N2CCCCC2)cc1
- AC50 [24]: 2.51 µM (active)
- AC50 [25]: 46.1 µM (active)
- AC50 [26]: 72.4 µM (active)

SMILES: FC(F)(F)c1ccc(CSc2nnc(-c3ccccc3)o2)cc1
- AC50 [27]: 0.223 µM (active)

SMILES: N#Cc1ccc(-c2ccc3c(c2)[C@H]2[C@H](CCN2S(=O)(=O)c2cccc(F)c2)[C@H](CO)N3)cc1
- AC50 [28]: 32.6 µM (active)
- AC50 [29]: 33.6 µM (active)
- AC50 [30]: 5.71 µM (active)

SMILES: COc1ccccc1CN1CC[C@@H]2[C@H](CO)Nc3ccc(C#Cc4ccccc4)cc3[C@@H]21
- AC50 [31]: > 60 µM (inactive)
